Laboratory results published in ChEMBL document CHEMBL1153880, “Synthesis and adrenolytic activity of 1-(1H-indol-4-yloxy)-3-{[2-(2-methoxyphenoxy)ethyl]amino}propan-2-ol and its enantiomers. Part 1” (Eur J Med Chem, 2009).

What was measured:
[1] = Acute toxicity in iv dosed anaesthetized Wistar rat; type: organism-based; details: in vivo
Rattus norvegicus [2] = assay: Antiarrhythmic activity against adrenaline-induced arrhythmia in iv dosed anaesthetized Wistar rat assessed as inhibition of premature ventricular beats pretreated 60 mins prior to adrenaline challenge; type: functional; details: Heart
[3] = Therapeutic index, ratio of LD50 for Wistar rat to antiarrhythmic ED50 for Wistar rat; type: organism-based, Heart; details: in vivo, read-out: TI
Rattus norvegicus [4] = assay: Effect on heart rate in anaesthetized Wistar rat assessed as number of beats per minute at 1 mg/kg, iv after 1 min by electrocardiography; type: functional
Rattus norvegicus [5] = assay: Effect on electrocardiogram in anaesthetized Wistar rat assessed as change in P-Q interval at 1 mg/kg, iv after 1 min by electrocardiography; type: functional
Rattus norvegicus [6] = assay: Effect on heart rate in anaesthetized Wistar rat assessed as number of beats per minute at 1 mg/kg, iv after 5 mins by electrocardiography; type: functional

Row | SMILES | LD50 [1] [mg/kg] | ED50 (Rattus norvegicus [2]) [mg/kg] | selectivity ratio [3] | Activity (Rattus norvegicus [4]) [min⁻¹] | Activity (Rattus norvegicus [5]) [ms] | Activity (Rattus norvegicus [6]) [min⁻¹]
1 | CC(C)NCC(O)COc1cccc2[nH]ccc12 (stereo not drawn) [PINDOLOL] | 39 | 1.05 | 37 |  |  | 
2 | COc1ccccc1OCCNCC(O)COc1cccc2[nH]c3ccccc3c12 (stereo not drawn) [CARVEDILOL] | 25 | 0.25 |  | 345.2 | 50 | 340.3
